Assay: Hygroscopic study: water content by KF and description after exposure to 25° C./60% RH and 25° C./90% RH
Assay type: physicochemical
Protocol: Method for Measuring the Water Content
About 10 g canagliflozin was exposed to 25° C. and 60% relative humidity and 25° C. and 90% relative humidity conditions. About 300 mg of sample was withdrawn each time at the timely intervals of 1 hr, 2 hrs, 4 hrs, 8 hrs, 12 hrs, 24 hrs and 48 hrs from the conditions and tested for description and water content by KF. The water content was calculated by the following formula: […]
Results of Hygroscopic Study for Canagliflozin Obtained as Per Example 16

For `Cc1ccc([C@@H]2O[C@H](CO)[C@@H](O)[C@H](O)[C@H]2O)cc1Cc1ccc(-c2ccc(F)cc2)s1` [Canagliflozin, 1(S)-1,5-anhydro-1-[3[[5-(4-fluorophenyl)-2-thienyl]methyl]-4-methylphenyl]-D-glucitol], which Description (25° C./60% RH, 1 hr) is on record?
The Description was “Off white”.

What about the “Moisture content by KF (%)” value (25° C./60% RH, 1 hr) of the same compound?
The value was 2.22%.

What about the Description (25° C./60% RH, 2 hrs) of the same compound?
The Description was “Off white”.

What about the “Moisture content by KF (%)” value (25° C./60% RH, 2 hrs) of the same compound?
The value was 2.29%.

And the Description (25° C./60% RH, 4 hrs)?
Its Description is “Off white”.

What about the “Moisture content by KF (%)” value (25° C./60% RH, 4 hrs) of the same compound?
The value was 2.33%.

And the Description (25° C./60% RH, 8 hrs)?
Its Description is “Off white”.

What about the “Moisture content by KF (%)” value (25° C./60% RH, 8 hrs) of the same compound?
The value was 2.35%.

And the Description (25° C./60% RH, 12 hrs)?
Its Description is “Off white”.

What about the “Moisture content by KF (%)” value (25° C./60% RH, 12 hrs) of the same compound?
Its value is 2.39%.

What about the Description (25° C./60% RH, 24 hrs) of the same compound?
Its Description is “Off white”.

And the “Moisture content by KF (%)” value (25° C./60% RH, 24 hrs)?
Its value is 2.42%.

What about the Description (25° C./60% RH, 48 hrs) of the same compound?
The Description was “Off white”.

What about the “Moisture content by KF (%)” value (25° C./60% RH, 48 hrs) of the same compound?
The value was 2.49%.

And the Description (25° C./60% RH, Initial)?
The Description was “Off white”.

And the “Moisture content by KF (%)” value (25° C./60% RH, Initial)?
Its value is 2.19%.

What about the Description (25° C./90% RH, 1 hr) of the same compound?
Its Description is “Off white”.

And the “Moisture content by KF (%)” value (25° C./90% RH, 1 hr)?
Its value is 2.36%.

What about the Description (25° C./90% RH, 2 hrs) of the same compound?
Its Description is “Off white”.

What about the “Moisture content by KF (%)” value (25° C./90% RH, 2 hrs) of the same compound?
Its value is 2.48%.

And the Description (25° C./90% RH, 4 hrs)?
The Description was “Off white”.

What about the “Moisture content by KF (%)” value (25° C./90% RH, 4 hrs) of the same compound?
Its value is 2.52%.

What about the Description (25° C./90% RH, 8 hrs) of the same compound?
The Description was “Off white”.

And the “Moisture content by KF (%)” value (25° C./90% RH, 8 hrs)?
The value was 2.69%.

And the Description (25° C./90% RH, 12 hrs)?
The Description was “Off white”.

And the “Moisture content by KF (%)” value (25° C./90% RH, 12 hrs)?
The value was 2.87%.

What about the Description (25° C./90% RH, 24 hrs) of the same compound?
Its Description is “Off white”.

What about the “Moisture content by KF (%)” value (25° C./90% RH, 24 hrs) of the same compound?
Its value is 3.17%.

And the Description (25° C./90% RH, 48 hrs)?
The Description was “Off white”.

And the “Moisture content by KF (%)” value (25° C./90% RH, 48 hrs)?
Its value is 3.48%.

What about the Description (25° C./90% RH, Initial) of the same compound?
The Description was “Off white”.

And the “Moisture content by KF (%)” value (25° C./90% RH, Initial)?
The value was 2.19%.

Which “increase of moisture content” value (exposed for 48 hours to 25° C. and 60% relative humidity) does the source give for `Cc1ccc([C@@H]2O[C@H](CO)[C@@H](O)[C@H](O)[C@H]2O)cc1Cc1ccc(-c2ccc(F)cc2)s1` [amorphous canagliflozin, 1(S)-1,5-anhydro-1-[3[[5-(4-fluorophenyl)-2-thienyl]methyl]-4-methylphenyl]-D-glucitol] here?
The value was no more than 0.4%.

What about the “increase of moisture content” value (exposed for 48 hours to 25° C. and 90% relative humidity) of the same compound?
Its value is no more than 0.4%.
